Key:
[1] = system: isolated hepatocytes treated with carbon tetrachloride; experiment: Peroxidative degradation of dolichol and TBARS formation in hepatocytes treated with CCl4; type: cell-based; settings: Vitamin E administered
Description: (§1) After irradiation, dolichol undergoes transformations in the most dangerous spectral region (UVB), depending on the dose of radiation applied; it absorbs UV radiation and, if irradiated with UVC rays, instantly acquires an absorption capacity in the UVB region. […] The phenomenon is very weak in the case of irradiation with monochromatic light at 310 nm, more intense with irradiation at 280 nm, and greatest with white light irradiation, namely with the entire emission spectrum of the xenon lamp. […] The photodecomposition products of dolichol have not yet been identified but, by analogy with the findings made with peroxidative degradation of dolichol in isolated hepatocytes treated with carbon tetrachloride, it can be concluded that in biological systems, the degradation cascade leads to the formation of thiobarbituric acid reactive substances (TBARS), which are readily metabolised and detoxified by the body in the event of resorption. […] As regards absorption, it should be borne in mind that dolichol is a normal constituent of all cell membranes, in which it is synthesised and remains until breakdown, without being resorbed into the bloodstream or being transferable to other tissues.

[2] = Study of anti UV-B activity: UV photo-irradiation of dolichol, absorbance change; type: physicochemical
Description: as §1

[3] = In vivo photoprotection tests using dolichol; settings: dolichol approx. 1 mg/cm2, in vivo

Vitamin E
degradation of dolichol and formation of TBARS [1]: prevented

dolichol
photostability under UV photo-irradiation ([2]; UV photo-irradiation in an oxygen atmosphere): apparent breakdown, accompanied by disappearance of UVC absorption capacity
increase in absorbance at 250 nm ([2]; irradiated with UVC rays): more modest increases
increase in absorbance at 320 nm ([2]; irradiated with UVC rays, in one minute): 430%
increase in absorbance at 320 nm ([2]; irradiated with UVC rays, in two minutes): 580%
acquisition of UVB absorption (the phenomenon) ([2]; irradiation at 280 nm): more intense
acquisition of UVB absorption (the phenomenon) ([2]; irradiation with monochromatic light at 310 nm): very weak
acquisition of UVB absorption (the phenomenon) ([2]; white light irradiation, entire emission spectrum of the xenon lamp): greatest
(photo)sensitising effects [3]: does not have cell-damaging effects or (photo)sensitising effects
cell-damaging effects [3]: does not have cell-damaging effects
